According to US12145929B2, “Piperidine derivative and pharmaceutical composition for inhibiting autotaxin comprising same” (NEXTGEN BIOSCIENCE CO., LTD., priority 2021, dated 2024):

Target: human Autotaxin protein (Homo sapiens, UniProt Q13822)
Experiment: Evaluation of inhibitory activity against human Autotaxin protein (18:1 LysoPC substrate, choline assay kit, absorbance 570 nm)
Format: biochemical
Details: compound at 500 nM, 2 hours at 37° C.
Description: The solution of each synthesized compound (80 uM, 100% dimethyl sulfoxide) was sequentially diluted 5 times with dimethyl sulfoxide to prepare 6 concentrations. Each concentration of compound was diluted two-fold with 1× test buffer (50 mM Tris-Cl (pH 8.0), 5 mM KCl, 1 mM CaCl2), 1 mM MgCl2, 140 mM NaCl, deionized water, 1 mg/mL BSA), and 1 uL (1.25% dimethyl sulfoxide) of this diluted mixture was dispensed into each well of a 96 well clear round bottom plate. 9 uL of 1× test buffer were added to each well, followed by the addition of 20 uL of 240 nM human Autotaxin protein (buffer: 50 mM Tris-HCl, pH 8.0, with 150 mM sodium chloride and 20% glycerol). 10 uL of sonicated 360 uM 18:1 LysoPC (diluted with 1× test buffer) were added to each well. The reaction was performed for 2 hours in a shaking incubator at 37° C., and a secondary reaction mixture (choline assay kit, KA1662) (65 uL of 1× test buffer: 1 uL of choline oxidase: 1 uL of dye probe) was prepared. 60 uL of the secondary reaction mixture were added to the reaction plate and reacted on a shaker for 30 minutes. Using a SpectraMax iD3 microplate reader, the absorbance was measured at a wavelength of 570 nm. The percentage of inhibition activity (% inhibition) was calculated by the Formula: (1−Absorbancetestgroup/Absorbancecontrol group)×100.

| Structure (SMILES) | inhibition at 0.5 µM [%] | inhibition (%) at 500 nM [%] |
| --- | --- | --- |
| Clc1cc(Cl)cc(CCNc2ncc(-c3nnc(N4CCC(c5cnn[nH]5)CC4)o3)cn2)c1 [Example 16, 5-(5-(4-(H-1,2,3-Triazol-5-yl)piperidin-1-yl)-1,3,4-oxadiazol-2-yl)-N-(3,5-dichlorophenethyl)pyrimidin-2-amine] | – | 84 |
| c1ccc2c(c1)CC(Nc1ncc(-c3nnc(N4CCC(c5cnn[nH]5)CC4)o3)cn1)C2 [Example 1, 5-(5-(4-(1H-1,2,3-Triazol-5-yl)piperidin-1-yl)-1,3,4-oxadiazol-2-yl)-N-(2,3-dihydro-1H-inden-2-yl)pyrimidin-2-amine] | 99 | – |
| O=C(/C=C/c1cnc(NC2Cc3cc(F)c(F)cc3C2)nc1)N1CCC(c2cnn[nH]2)CC1 [Example 30, (E)-1-(4-(1H-1,2,3-triazol-5-yl)piperidin-1-yl)-3-(2-((5,6-difluoro-2,3-dihydro-1H-inden-2-yl)amino)pyrimidin-5-yl)prop-2-en-1-one] | 97.8 | – |
| c1ccc(Cn2nncc2C2CCN(c3cnc(-c4cnc(NC5Cc6ccccc6C5)nc4)o3)CC2)cc1 [Example 31, 5-(5-(4-(1-Benzyl-1H-1,2,3-triazol-5-yl)piperidin-1-yl)oxazol-2-yl)-N-(2,3-dihydro-1H-inden-2-yl)pyrimidin-2-amine] | 8.1 | – |
| Cc1ncn(C2CCN(c3nnc(-c4cnc(NC5Cc6ccccc6C5)nc4)o3)CC2)n1 [Example 10, N-(2,3-dihydro-1H-inden-2-yl)-5-(5-(4-(3-methyl-1H-1,2,4-triazol-1-yl)piperidin-1-yl)-1,3,4-oxadiazol-2-yl)pyrimidin-2-amine] | 75 | – |
| O=C(CCCc1nnc(NC2Cc3ccccc3C2)s1)N1CCC(c2cnc[nH]2)CC1 [Example 20, 1-(4-(1H-Imidazol-5-yl)piperidin-1-yl)-4-(5-((2,3-dihydro-1H-inden-2-yl)amino)-1,3,4-thiadiazol-2-yl)butan-1-one] | 14 | – |
| O=C(CCCc1nnc(NC2Cc3ccccc3C2)o1)N1CCC(c2cnn[nH]2)CC1 [Example 21, 1-(4-(1H-1,2,3-Triazol-5-yl)piperidin-1-yl)-4-(5-((2,3-dihydro-1H-inden-2-yl)amino)-1,3,4-oxadiazol-2-yl)butan-1-one] | 64 | – |
| Cc1nn[nH]c1C1CCN(c2nnc(-c3cnc(NC4Cc5cc(F)c(F)cc5C4)nc3)o2)CC1 [Example 29, N-(5,6-difluoro-2,3-dihydro-1H-inden-2-yl)-5-(5-(4-(4-methyl-1H-1,2,3-triazol-5-yl)piperidin-1-yl)-1,3,4-oxadiazol-2-yl)pyrimidin-2-amine] | 90.8 | – |
| c1cc2c(cc1CNc1ncc(-c3cc(N4CCC(c5cnn[nH]5)CC4)no3)cn1)OCO2 [Example 46, N-(1,3-benzodioxol-5-ylmethyl)-5-[3-[4-(1H-triazol-5-yl)-1-piperidyl]isoxazol-5-yl]pyrimidin-2-amine] | – | 1 |
| O=C(CCc1cnc(NC2Cc3ccccc3C2)nc1)N1CCC(c2cnn[nH]2)CC1 [Example 17, 1-(4-(1H-1,2,3-Triazol-5-yl)piperidin-1-yl)-3-(2-((2,3-dihydro-1H-inden-2-yl)amino)pyrimidin-5-yl)propan-1-one] | 92 | – |
| Fc1cc2c(cc1F)CC(Nc1ncc(-c3nnc(N4CCC(c5cnn[nH]5)CC4)o3)cn1)C2 [Example 5, 5-(5-(4-(1H-1,2,3-Triazol-5-yl)piperidin-1-yl)-1,3,4-oxadiazol-2-yl)-N-(5,6-difluoro-2,3-dihydro-1H-inden-2-yl)pyrimidin-2-amine] | 100 | – |
| Clc1cc(Cl)cc(CNc2ncc(-c3nnc(N4CCC(c5cnn[nH]5)CC4)o3)cn2)c1 [Example 15, 5-(5-(4-(1H-1,2,3-Triazol-5-yl)piperidin-1-yl)-1,3,4-oxadiazol-2-yl)-N-(3,5-dichlorobenzyl)pyrimidin-2-amine] | 100 | – |
| Brc1ccc2c(c1)CC(Nc1ncc(-c3nnc(N4CCC(c5cnn[nH]5)CC4)o3)cn1)C2 (centres unmarked) [Example 4, 5-(5-(4-(1H-1,2,3-Triazol-5-yl)piperidin-1-yl)-1,3,4-oxadiazol-2-yl)-N-(5-bromo-2,3-dihydro-1H-inden-2-yl)pyrimidin-2-amine] | 90 | – |
| Fc1cc2c(cc1F)CC(Nc1ncc(-c3nnc(N4CCC(c5nnco5)CC4)o3)cn1)C2 [Example 27, 5-(5-(4-(1,3,4-Oxadiazol-2-yl)piperidin-1-yl)-1,3,4-oxadiazol-2-yl)-N-(5,6-difluoro-2,3-dihydro-1H-inden-2-yl)pyrimidin-2-amine] | 29 | – |

More lines, main results first:

| inhibition at 0.5 µM [%] | Structure (SMILES) | inhibition (%) at 500 nM [%] |
| --- | --- | --- |
| 68.5 | Fc1ccc2c(c1)CC(Nc1ncc(-c3cc(N4CCC(c5cnn[nH]5)CC4)no3)cn1)C2 (centres unmarked) [Example 40, 5-(3-(4-(1H-1,2,3-triazol-5-yl)piperidin-1-yl)isoxazol-5-yl)-N-(5-fluoro-2,3-dihydro-1H-inden-2-yl)pyrimidin-2-amine] | – |
| 58 | NS(=O)(=O)C1CCN(c2nnc(-c3cnc(NC4Cc5cc(F)c(F)cc5C4)nc3)o2)CC1 [Example 65, 1-(5-(2-((5,6-Difluoro-2,3-dihydro-1H-inden-2-yl)amino)pyrimidin-5-yl)-1,3,4-oxadiazol-2-yl)piperidine-4-sulfonamide] | – |
| 84 | Fc1ccc(CNc2ncc(-c3nnc(N4CCC(c5cnn[nH]5)CC4)o3)cn2)cc1F [Example 58, 5-(5-(4-(1H-1,2,3-triazol-5-yl)piperidin-1-yl)-1,3,4-oxadiazol-2-yl)-N-(3,4-difluorobenzyl)pyrimidin-2-amine] | – |
| 88.1 | Fc1cc(F)cc(CNc2ncc(-c3nnc(N4CCC(c5cnn[nH]5)CC4)o3)cn2)c1 [Example 57, 5-(5-(4-(1H-1,2,3-triazol-5-yl)piperidin-1-yl)-1,3,4-oxadiazol-2-yl)-N-(3,5-difluorobenzyl)pyrimidin-2-amine] | – |
| 97.2 | Fc1ccc2c(c1)CC(Nc1ncc(C3CC(N4CCC(c5cnn[nH]5)CC4)=NO3)cn1)C2 (centres unmarked) [Example 39, 5-(3-(4-(1H-1,2,3-triazol-5-yl)piperidin-1-yl)-4,5-dihydroisoxazol-5-yl)-N-(5-fluoro-2,3-dihydro-1H-inden-2-yl)pyrimidin-2-amine] | – |
| 98.5 | Brc1cc(Br)cc(CNc2ncc(-c3nnc(N4CCC(c5cnn[nH]5)CC4)o3)cn2)c1 [Example 59, 5-(5-(4-(1H-1,2,3-triazol-5-yl)piperidin-1-yl)-1,3,4-oxadiazol-2-yl)-N-(3,5-dibromobenzyl)pyrimidin-2-amine] | – |
| 53.4 | c1ccc2c(c1)CC(Nc1ncc(-c3cc(N4CCC(c5cnn[nH]5)CC4)no3)cn1)C2 [Example 36, 5-(3-(4-(1H-1,2,3-triazol-5-yl)piperidin-1-yl)isoxazol-5-yl)-N-(2,3-dihydro-1H-inden-2-yl)pyrimidin-2-amine] | – |
| 86.8 | O=c1[nH]nc(C2CCN(c3nnc(-c4cnc(NC5Cc6cc(F)c(F)cc6C5)nc4)o3)CC2)o1 [Example 66, 5-(1-(5-(2-((5,6-Difluoro-2,3-dihydro-1H-inden-2-yl)amino)pyrimidin-5-yl)-1,3,4-oxadiazol-2-yl)piperidin-4-yl)-1,3,4-oxadiazol-2(3H)-one] | – |
| 97.9 | COC1(c2c[nH]nn2)CCN(c2nnc(-c3cnc(NC4Cc5cc(F)c(F)cc5C4)nc3)o2)CC1 [Example 70, N-(5,6-difluoro-2,3-dihydro-1H-inden-2-yl)-5-(5-(4-methoxy-4-(1H-1,2,3-triazol-4-yl)piperidin-1-yl)-1,3,4-oxadiazol-2-yl)pyrimidin-2-amine] | – |
| 96 | c1ccc2c(c1)CC(Nc1ncc(C3CC(N4CCC(c5cnn[nH]5)CC4)=NO3)cn1)C2 (centres unmarked) [Example 35, N-indan-2-yl-5-[3-[4-(1H-triazol-5-yl)-1-piperidyl]-4,5-dihydroisoxazol-5-yl]pyrimidin-2-amine] | – |
| 95.3 | Cc1nc(NC2Cc3ccc(Br)cc3C2)ncc1-c1nnc(N2CCC(c3cnn[nH]3)CC2)o1 (centres unmarked) [Example 60, 5-(5-(4-(1H-1,2,3-triazol-5-yl)piperidin-1-yl)-1,3,4-oxadiazol-2-yl)-N-(5-bromo-2,3-dihydro-1H-inden-2-yl)-4-methylpyrimidin-2-amine] | – |
| 7 | c1ccc2c(c1)CC(Nc1ncc(C3CC(N4CCC(c5nnn[nH]5)CC4)=NO3)cn1)C2 (centres unmarked) [Example 50, 5-(3-(4-(1H-tetrazol-5-yl)piperidin-1-yl)-4,5-dihydroisoxazol-5-yl)-N-(2,3-dihydro-1H-inden-2-yl)pyrimidin-2-amine] | – |
| 1.2 | CS(=O)(=O)c1ccc(CNc2ncc(C3CC(N4CCC(c5cnn[nH]5)CC4)=NO3)cn2)cc1 (centres unmarked) [Example 49, 5-(3-(4-(1H-1,2,3-triazol-5-yl)piperidin-1-yl)-4,5-dihydroisoxazol-5-yl)-N-(4-(methylsulfonyl)benzyl)pyrimidin-2-amine] | – |
| 98.6 | Fc1cc2c(cc1F)CC(Nc1ncc(-c3nnc(N4CCC(F)(c5cnn[nH]5)CC4)o3)cn1)C2 [Example 71, N-(5,6-difluoro-2,3-dihydro-1H-inden-2-yl)-5-(5-(4-fluoro-4-(1H-1,2,3-triazol-5-yl)piperidin-1-yl)-1,3,4-oxadiazol-2-yl)pyrimidin-2-amine] | – |
| 30.9 | O=C(O)C1CCN(c2nnc(-c3cnc(NC4Cc5cc(F)c(F)cc5C4)nc3)o2)CC1 [Example 67, 1-(5-(2-((5,6-Difluoro-2,3-dihydro-1H-inden-2-yl)amino)pyrimidin-5-yl)-1,3,4-oxadiazol-2-yl)piperidine-4-carboxylic acid] | – |
